For orientation: EC50 means the midpoint of the concentration-response curve.

What all share (type): cell-based
The target in experiment [1] is T1, hGIPR (Homo sapiens, UniProt P48546).
T1 sequence (P48546 22-466): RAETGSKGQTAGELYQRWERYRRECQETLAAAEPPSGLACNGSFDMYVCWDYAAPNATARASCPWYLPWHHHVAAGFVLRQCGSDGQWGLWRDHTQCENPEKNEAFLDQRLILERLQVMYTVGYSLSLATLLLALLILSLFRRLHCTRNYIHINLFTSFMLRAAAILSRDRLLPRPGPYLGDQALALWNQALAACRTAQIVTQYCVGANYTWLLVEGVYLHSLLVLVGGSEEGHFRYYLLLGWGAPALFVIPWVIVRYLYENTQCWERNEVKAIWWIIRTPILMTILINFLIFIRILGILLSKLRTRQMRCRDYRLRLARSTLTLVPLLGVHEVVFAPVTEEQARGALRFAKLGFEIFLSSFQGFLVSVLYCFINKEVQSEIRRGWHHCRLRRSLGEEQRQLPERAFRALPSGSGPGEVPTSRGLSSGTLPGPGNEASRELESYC
Kind of experiment: Functional cAMP activity in the presence of 1% HSA. The settings on record: read-out: cAMP Rel EC50, hGIPR.

Experiment [2] addresses human GcgR (Homo sapiens, UniProt P47871). Kind of experiment: Functional cAMP activity in the presence of 1% HSA. The following applies: read-out: cAMP Rel EC50, hGcgR.
Experiment [3] concerns the target hGcgR (Homo sapiens, UniProt P47871). The experiment is described as follows: Functional cAMP activation in the presence of 0.1% casein (no HSA). The following applies: read-out: Relative cAMP EC50, hGcgR.
Experiment [4] addresses T2, hGLP-1R (Homo sapiens, UniProt P43220). Kind of experiment: Functional cAMP activity in the presence of 1% HSA. The settings on record: read-out: cAMP Rel EC50, hGLP-1R.
For experiment [5], the target named is T1, hGIPR. Kind of experiment: Functional cAMP activation in the presence of 0.1% casein (no HSA). The following applies: read-out: Relative cAMP EC50, hGIPR.
In experiment [6] the target is T2, hGLP-1R. Described as above. The settings on record: read-out: Relative cAMP EC50, hGLP-1R.
The mark [7] stands for this setting: in the presence of 0.1% casein (no HSA), geometric mean.
The mark [8] stands for this setting: HEK-293 clonal cells expressing hGIPR, in the presence of 1% HSA, geometric mean of relative EC50.
[9] abbreviates: HEK-293 clonal cells expressing hGcgR, in the presence of 1% HSA, geometric mean of relative EC50.
The mark [10] stands for this setting: HEK-293 clonal cells expressing hGLP-1R, in the presence of 1% HSA, geometric mean of relative EC50.
Setting [11] is: HEK-293 clonal cell line, 1% HSA, geometric mean of relative EC50.
Setting [12] is: in the presence of 0.1% casein (no HSA), geometric mean of relative EC50.

Like-named read-outs stand apart in the source and are kept apart here. Starred links: 1 amine or outer side, 2 acyl side, 3 side chain; linkers in the order of their positions; H or OH if unused. Non-standard residues stand in square brackets, D forms with d. Groups on a side chain read outwards from the residue. *: point of attachment. C20 diacid = O=C(O)CCCCCCCCCCCCCCCCCCC(=O)*; C18 diacid = O=C(O)CCCCCCCCCCCCCCCCC(=O)*; αMePhe(2-F) = C[C@](N)(Cc1ccccc1F)C(=O)O; γGlu = O=C(O)[C@H](CCC(=O)[*:2])N[*:1]; αMeY = C[C@](N)(Cc1ccc(O)cc1)C(=O)O; 4Pal = N[C@@H](Cc1ccncc1)C(=O)O; Aad = N[C@@H](CCCC(=O)O)C(=O)O; αMeL = CC(C)C[C@](C)(N)C(=O)O; αMeS = C[C@](N)(CO)C(=O)O; Orn = NCCC[C@H](N)C(=O)O; AEEA = NCCOCCOCC(=O)O; Aib = CC(C)(N)C(=O)O
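For Relative cAMP EC50, hGIPR in this document: intracellular cAMP rise after 30 min at 37 °C read by HTRF against a standard curve, scaled between buffer alone (0%) and top control ligand concentration (100%), four-parameter fit.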
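For Relative cAMP EC50, hGLP-1R in this document: intracellular cAMP rise after 30 min at 37 °C read by HTRF, normalized between buffer only (0%) and maximal control ligand (100%), four-parameter variable-slope fit.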
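For Relative cAMP EC50, hGcgR in this document: intracellular cAMP rise after 30 min at 37 °C, read by HTRF against a cAMP standard curve, scaled from buffer only (0%) to maximal control ligand response (100%).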

T2 sequence (P43220 24-463): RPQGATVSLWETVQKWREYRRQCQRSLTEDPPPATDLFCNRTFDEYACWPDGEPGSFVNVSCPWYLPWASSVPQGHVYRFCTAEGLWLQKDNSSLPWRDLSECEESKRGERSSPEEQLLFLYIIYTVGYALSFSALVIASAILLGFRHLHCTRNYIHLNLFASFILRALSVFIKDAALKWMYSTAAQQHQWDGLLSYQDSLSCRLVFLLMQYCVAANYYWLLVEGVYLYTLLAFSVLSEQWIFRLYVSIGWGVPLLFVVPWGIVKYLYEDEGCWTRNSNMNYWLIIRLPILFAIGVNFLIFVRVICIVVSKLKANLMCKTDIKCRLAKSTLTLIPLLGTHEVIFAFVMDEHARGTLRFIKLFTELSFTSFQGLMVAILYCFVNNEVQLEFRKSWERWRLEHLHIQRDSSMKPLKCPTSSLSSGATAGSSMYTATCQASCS
Chain of hGcgR (P47871 26-477): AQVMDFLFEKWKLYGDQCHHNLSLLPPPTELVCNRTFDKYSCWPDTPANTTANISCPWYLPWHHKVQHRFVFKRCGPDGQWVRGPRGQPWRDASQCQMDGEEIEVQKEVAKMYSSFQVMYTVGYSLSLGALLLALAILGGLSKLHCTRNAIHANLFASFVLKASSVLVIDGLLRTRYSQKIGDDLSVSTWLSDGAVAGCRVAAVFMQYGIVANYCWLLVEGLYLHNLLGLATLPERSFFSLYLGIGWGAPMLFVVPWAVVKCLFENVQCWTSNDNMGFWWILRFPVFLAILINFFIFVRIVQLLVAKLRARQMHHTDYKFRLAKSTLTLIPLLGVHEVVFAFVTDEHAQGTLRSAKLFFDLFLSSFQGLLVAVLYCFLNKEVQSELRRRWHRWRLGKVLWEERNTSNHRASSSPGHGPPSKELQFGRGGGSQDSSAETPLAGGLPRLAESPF
Chain of human GcgR (P47871 26-477): as above

Regarding “H-Y[Aib]QGT[αMePhe(2-F)]TSDYSILLDKQAQK([AEEA-AEEA-γGlu-C20 diacid])AFIEYLLEGGPSSGEPPPSEG-NH2 [Example 345]”, the EC50 in experiment [1] was found to be 15.3 nM; in experiment [2], 3300 nM; in experiment [3] (setting [7]), 11.3 nM; in experiment [4], 256 nM; in experiment [5] (setting [7]), 0.0377 nM; in experiment [6] (setting [7]) it was 0.658 nM.
As for “H-Y[Aib]QGT[αMePhe(2-F)]TSDYSI[αMeL]LDKK([AEEA-AEEA-γGlu-C20 diacid])AA[Aib]AFIEYLIETGPSSGAPPPSEG-NH2 [Example 383]”, the EC50 turned out to be 32.3 nM in experiment [1] (setting [8]); 530 nM in experiment [2] (setting [9]); 1.27 nM in experiment [3] (setting [7]); 79.1 nM in experiment [4] (setting [10]); 0.0406 nM in experiment [5] (setting [7]); 0.258 nM in experiment [6] (setting [7]).
“H-Y[Aib]QGT[αMePhe(2-F)]TSDYSI[αMeL]LDKK([AEEA-γGlu-C18 diacid])AQ[Aib]AFIEYLLETGPSSGAPPPSEG-NH2 [Example 417]”: the EC50 is 4.46 nM in experiment [1] (setting [11]); 386 nM in experiment [2] (setting [11]); 2.83 nM in experiment [3] (setting [12]); 67 nM in experiment [4] (setting [11]); 0.0144 nM in experiment [5] (setting [12]); 0.328 nM in experiment [6] (setting [12]).
For the substance “H-Y[Aib]QGT[αMePhe(2-F)]TSDYSI[αMeL]LD[Orn]K([AEEA-γGlu-C18 diacid])AQ[Aib]AFI[dE]YLLEGGPSSGAPPPSEG-NH2 [Example 404]”, the concentration giving a half-maximal response (EC50) stood at 2.03 nM in experiment [1]; 735 nM in experiment [2]; 4.1 nM in experiment [3]; 32.2 nM in experiment [4]; 0.0102 nM in experiment [5]; 0.217 nM in experiment [6].
“H-Y[Aib]QGT[αMePhe(2-F)]TSDYSKLLDEIAQK([AEEA-γGlu-C20 diacid])AFIEYLLEGGPSSGEPPPSEG-NH2 [Example 303]”: the EC50 was found to be 44.7 nM in experiment [1]; 9950 nM in experiment [2]; 6.1 nM in experiment [3] (setting [7]); 257 nM in experiment [4]; 0.116 nM in experiment [5] (setting [7]); 1.13 nM in experiment [6] (setting [7]).
For “H-Y[Aib]QGT[αMePhe(2-F)]TSDYSKLLDKIAQK([AEEA-γGlu-C18 diacid])AFIEYLIEGGPSSGEPPPSEG-NH2 [Example 330]”, the EC50 in experiment [1] is 7.33 nM; in experiment [2] it was 398 nM; in experiment [3] (setting [7]) it was 3.91 nM; in experiment [4], 91.8 nM; in experiment [5] (setting [7]) it was 0.0783 nM; in experiment [6] (setting [7]), 0.63 nM.
For “H-Y[Aib]QGT[αMePhe(2-F)]TSDYSKLLDKIAQK([AEEA-γGlu-C20 diacid])AFIEYLIEGGPSSGAPPPEGE-NH2 [Example 357]”, the EC50 in experiment [1] turned out to be 42.9 nM; in experiment [2], 1810 nM; in experiment [3] (setting [7]) it was 6.21 nM; in experiment [4], 248 nM; in experiment [5] (setting [7]), 0.077 nM; in experiment [6] (setting [7]) it was 0.625 nM.
As to “H-Y[Aib]QGT[αMePhe(2-F)]TSDYSKLLDKIAQK([AEEA-γGlu-C20 diacid])AFIEYLIEGGPSSGAPPPSGE-NH2 [Example 356]”, the EC50 in experiment [1] was 19.2 nM; in experiment [2], 2680 nM; in experiment [3] (setting [7]), 4.76 nM; in experiment [4], 206 nM; in experiment [5] (setting [7]), 0.0613 nM; in experiment [6] (setting [7]), 0.599 nM.
For “H-Y[Aib]QGT[αMePhe(2-F)]TSDYSKLLDKIAQK([AEEA-γGlu-C20 diacid])[Orn]FIEWLIEGGPSSGEPPPSEG-NH2 [Example 310]”, the EC50 in experiment [1] amounted to 15 nM; in experiment [2], 4000 nM; in experiment [3] (setting [7]) it was 3.52 nM; in experiment [4] it was 177 nM; in experiment [5] (setting [7]), 0.0939 nM; in experiment [6] (setting [7]), 0.586 nM.
For the substance “H-Y[Aib]QGT[αMePhe(2-F)]TSDYSK[αMeL]LDKK([AEEA-γGlu-C18 diacid])AQ[Aib]QFIEYLEEGGPSSGEPPPSEG-NH2 [Example 292]”, the EC50 in experiment [1] (setting [8]) was determined as 92.7 nM; in experiment [2] (setting [9]), 583 nM; in experiment [3] (setting [7]), 1.84 nM; in experiment [4] (setting [10]), 129 nM; in experiment [5] (setting [7]) it was 1.02 nM; in experiment [6] (setting [7]), 1.03 nM.
Regarding “H-Y[Aib]QGT[αMePhe(2-F)]TSDY[αMeS]I[αMeL]LD[Orn]K([AEEA-γGlu-C18 diacid])AQ[Aib][Orn]FI[dE][αMeY]LEEGGPSSGEPPPEEG-NH2 [Example 403]”, the EC50 was determined as 36.9 nM in experiment [1]; 527 nM in experiment [2]; 1.59 nM in experiment [3]; 70 nM in experiment [4]; 0.0827 nM in experiment [5]; 0.396 nM in experiment [6].
“H-Y[Aib]QGT[αMePhe(2-F)]TSD[4Pal]SILLDKK([AEEA-γGlu-C18 diacid])AQ[Aib]AFIEYLEEGGPSSGAPPPSGTGE-NH2 [Example 662]”: the EC50 was determined as 4.69 nM in experiment [1]; 561 nM in experiment [2]; 4.81 nM in experiment [3]; 84.5 nM in experiment [4]; 0.0704 nM in experiment [5]; 0.946 nM in experiment [6].
For the substance “H-Y[Aib]QGT[αMePhe(2-F)]TSD[4Pal]SILLDKK([AEEA-γGlu-C18 diacid])AQ[Aib]AFIEYL[Aad]EGGPSSGAPPPSGTGE-NH2 [Example 663]”, the half-maximal effective concentration (EC50) amounted to 10.2 nM in experiment [1]; 226 nM in experiment [2]; 1.95 nM in experiment [3]; 79 nM in experiment [4]; 0.0893 nM in experiment [5]; 1.29 nM in experiment [6].
Regarding “H-Y[Aib]QGT[αMePhe(2-F)]TSD[4Pal]SILLDKK([AEEA-γGlu-C18 diacid])AQ[Aib]AFIE[αMeY]LEEGGPSSGAPPPSGTGE-NH2 [Example 669]”, the half-maximal effective concentration (EC50) in experiment [1] came to 1.41 nM; in experiment [2] it was 173 nM; in experiment [3], 1.76 nM; in experiment [4] it was 27.3 nM; in experiment [5] it was 0.0145 nM; in experiment [6], 0.27 nM.
On to “H-Y[Aib]QGT[αMePhe(2-F)]TSD[4Pal]SILLDKK([γGlu-γGlu-C18 diacid])AQ[Aib]AFIEWLEEGGPSSGAPPPSGTE-NH2 [Example 549]”, for which the EC50 in experiment [1] worked out at 3.67 nM; in experiment [2], 655 nM; in experiment [3], 3.41 nM; in experiment [4], 76.2 nM; in experiment [5] it was 0.0255 nM; in experiment [6], 0.395 nM.
For the substance “H-Y[Aib]QGT[αMePhe(2-F)]TSD[4Pal]SILLDKK([γGlu-γGlu-C18 diacid])AQ[Aib]AFIEWLQEGGPSSGEPPPSGTEE-NH2 [Example 579]”, the EC50 was 3.79 nM in experiment [1]; 679 nM in experiment [2]; 2.36 nM in experiment [3]; 67.3 nM in experiment [4]; 0.0171 nM in experiment [5]; 0.252 nM in experiment [6].
As to “H-Y[Aib]QGT[αMePhe(2-F)]TSD[4Pal]SILLDKK([γGlu-γGlu-C18 diacid])AQ[Aib]AFIEYLEEGGPSSGAPPPEGTE-NH2 [Example 659]”, the EC50 in experiment [1] is 5.75 nM; in experiment [2] it was 735 nM; in experiment [3], 5.89 nM; in experiment [4] it was 81.5 nM; in experiment [5], 0.0673 nM; in experiment [6] it was 1.31 nM.
As for “H-Y[Aib]QGT[αMePhe(2-F)]TSD[4Pal]SILLDKK([γGlu-γGlu-C18 diacid])AQ[Aib]AFIEYLEEGGPSSGAPPPSGAGE-NH2 [Example 620]”, the EC50 in experiment [1] stood at 5.96 nM; in experiment [2], 665 nM; in experiment [3], 8.26 nM; in experiment [4], 90.7 nM; in experiment [5] it was 0.0706 nM; in experiment [6], 0.981 nM.
“H-Y[Aib]QGT[αMePhe(2-F)]TSD[4Pal]SILLDKK([γGlu-γGlu-C18 diacid])AQ[Aib]AFIEYLEEGGPSSGAPPPSGEEE-NH2 [Example 611]”: the EC50 was 7.35 nM in experiment [1]; 627 nM in experiment [2]; 6.8 nM in experiment [3]; 146 nM in experiment [4]; 0.126 nM in experiment [5]; 1.63 nM in experiment [6].
